# Test results from patent US12048708B2 (RHOSHAN PHARMACEUTICALS, INC., priority 2017, dated 2024).
# Key:
# [1] = Particle size distribution (Malvern Master sizer 2000, dry powder volume distribution); format: physicochemical; details: API used to make the batches
# Excerpt: Additionally, we have measured the particle size distribution of the lyophiles and API. The measurement of particle size (Malvern, Master sizer 2000) of all the samples were done by using dry powder volume distribution method.
# [2] = pH of bulk and reconstituted solutions of ASA lyophilized with bases from TBA/water; format: physicochemical
# Excerpt: The pH of the solution was raised to 6.5 using 1N sodium hydroxide. Phase separation was observed, probably due to salting out of inorganic base from TBA/Water system. In the next trial, we first raised the pH of the solution to 5.0 using 1N sodium hydroxide, and then sodium phosphate, dibasic to raise the pH to 6.5. Sodium phosphate, dibasic was used for a better control of pH. Since we still observed phase separation it appears that inorganic bases or buffers may not be compatible with a 80% TBA/20% water system. We may require more water, for example, 70% TBA/30% water in the system to dissolve the alkalinizing agents.
# Inorganic buffers such as sodium phosphate, dibasic, are not soluble in this solvent system.
# The reconstituted solution pH was 4.71.
# In the next trial, we investigated incorporation of […] to facilitate complete neutralization. […] Arginine was, then, slowly added to the slurry to neutralize aspirin. […] The apparent pH of the bulk solution was 6.49. 5 ml aliquots placed in flint vials and lyophilized. Upon completion of lyophilization, the content of vial was reconstituted with 5 ml of Water for Injection. […] The reconstituted solution pH was 4.8.
# Based on the above studies, it was evident that larger amount of base is needed to neutralize ASA in the preferred solvent system. To incorporate more base in the bulk solution, we explored use of 60/40 TBA/water system as solvent for lyophilization. […] The apparent pH of the bulk solution was 6.31. […] The reconstituted solution pH was 4.41. […] We reconstituted the lyophile with 5 ml of buffer solution containing different concentrations of disodium phosphate.
# [3] = cited from earlier work
# platelet aggregation = details: following oral dosing, oral tablet or capsule; cited from earlier work
# [4] = Lyophilization of aspirin with lysine from water, HPLC analysis; format: physicochemical; details: ASA with lysine in water, 50 mg/ml, pH 6.5, HPLC
# Method: The pH of the solution was 4.5. We added an additional amount of lysine to raise the pH of the bulk solution to 6.5. When all the drug was dissolved, a clear solution was formed. […] The product, however, was not lyophilized properly. The lyophilized cake collapsed.
# rabbit ear vein = experiment: IV irritation studies in rabbit ear vein; format: in vivo; details: ASA solution of different osmolalities (300 to 1300 mOsm/kg) injected in rabbit ear vein
# Excerpt: It is an unexpected discovery or finding.
# [5] = Bulk solution stability of ASA in TBA-water system; format: physicochemical; details: 80/20, 70/30 and 60/40 TBA/water solutions, 24-hour storage at ambient storage conditions
# Method: For a robust lyophilization process, the drug should not degrade in the bulk solution for lyophilization for at least 24 hours.
substance,measurement,setting,value
o-acetylsalicylic acid [ASA],D50% (μm),[1],92.9 μm
same,D90% (μm),[1],249.5 μm
same,D100% (μm),[1],431.0 μm
same,apparent pH of the bulk solution,"[2]; 2 g aspirin, 100 mg sodium hydroxide, about 1.6 g arginine in 100 ml 70/30 TBA/water",6.49
same,apparent pH of the bulk solution,[2]; 2 g of ASA and 400 mg sodium hydroxide in 100 ml 60/40 TBA/water,6.31
same,reconstituted solution pH,"[2]; lyophile of 2 g aspirin, 100 mg sodium hydroxide, about 1.6 g arginine per 100 ml 70/30 TBA/water, 5 ml aliquot reconstituted with 5 ml Water for Injection",4.8
same,aqueous solubility,[3],about 3 mg/ml
same,time to 10% of potency loss,[3]; concentrated bulk solution,about 1.3 hours
same,onset of inhibition of platelet aggregation,platelet aggregation,approximately 40 minutes
same,ASA degraded during the lyophilization process,[4],about 40%
same,IV irritation,rabbit ear vein,no irritation was observed
same,degradation in bulk solution,[5],No appreciable degradation
